Source: patent publication US20240148749A1 (priority 2021, published 2024)

Tested on: CLP mice
Experiment: Survival after cecal ligation and puncture (CLP) model of sepsis
Assay type: in vivo, mouse
Experimental: A log-rank (Mantel-Cox) p value for trend was calculated.
We used peritonitis induced by CLP as a model of sepsis (Rittirsch et al., 2009). Briefly, animals were anesthetized with ketamine (Imalgene® 1000 100 mg/kg, Merial, France) and Xylazine (Rompun® 2% 20 mg/kg, Bayer, Germany) prior to surgery. After laparotomy, caecum was ligatured at the distal third with a 4.0 suture and the distal part was perforated twice with a 21 Gauge needle.
For use it is dissolved following the guidance provided by the manufacturer.
Clinical score was assessed 6, 12 and 24 hours and 21 days after CLP using a modified SmithKline Beecham, Harwell, Imperial College and Royal London Hospital phenotype assessment (SHIRPA) (Rogers et al., 1997) of the maximum score of fourteen. Weight, temperature and locomotor activity using an open field box were measured at the same time points. We determined survival rate twice a day for 21 days after CLP. The symptoms included in the a modified SmithKline Beecham, Harwell, Imperial College and Royal London Hospital phenotype assessment (SHIRPA) are tremors, periorbital exudates, piloerection, lethargy, vocalisation, positional passivity, no escapement to threat, long transfer arousal and diarrhoea. Each condition was scored from 0 to 2.
Experimental protocols were conducted in accordance with the French and European regulations on Animal Welfare and with Public Health Service recommendations. The experiments were performed on C57BL/6JRj mice (male and female) purchased from Janvier Laboratory. Mice were housed in cages in groups of 7, in a temperature (22±1.5° C.) and humidity-controlled environment, with a 12 h light/dark cycle. All animals used in the study were between 10 and 12 weeks old. Sample-size estimates for animal experiments were based on prior animal-modelling studies used in the Unit for the investigation of caecal ligation and puncture (CLP).
At the end, two groups were compared: CLP-Placebo, CLP-BMX-010. We determined survival rate twice a day for 4 days after CLP.”

CC[n+]1ccccc1-c1c2nc(c(-c3cccc[n+]3CC)c3ccc([nH]3)c(-c3cccc[n+]3CC)c3nc(c(-c4cccc[n+]4CC)c4ccc1[nH]4)C=C3)C=C2.[Mn+3] [BMX-010, manganese(III) 5,10,15,20-tetrakis(N-ethylpyridinium-2-yl) porphyrin]
survival of mice hours post-CLP (probability of survival over time) versus placebo (CLP experiment, FIG. 10): outperforms the placebo | survival at 4 days post-CLP versus placebo (CLP mice, 2 mg/kg intra peritoneal every 12 hours during 48 hours (4 injections), N=12 mice C57BL6/group): more that doubles survival
